Here are results for one compound from publication PMC10892984, “Novel Antineoplastic Inducers of Mitochondrial Apoptosis in Human Cancer Cells” (Molecules, 2024).

Data set [1] is described as follows: Cytotoxicity (CellTiter 96 AQueous One, MTS). The conditions noted are these: human; PBM cells. Type of data set: cell-based. The procedure:
(§1) The cytotoxicity and human immunodeficiency virus type 1 (HIV-1) strain LAI replication assays were performed in freshly explanted primary human peripheral blood mononuclear cells (PBM cells) according to published procedures. The assays were conducted at least in triplicate and treated statistically (if possible). HIV-1LAI (= HIV-1BRU = LAV-1) was assayed in primary human peripheral blood lymphocyte (PBL) cells in the presence of a drug being evaluated. The parameter for antiviral activity was a reduction in reverse transcriptase (RT) activity in the cell supernatant after Triton X–100-mediated lysis of released virions, as measured using [5α-^3H]dTTP (5α-tritiated thymidine 5′-triphosphate) incorporation into poly(rA)•poly(dT) directed by the primed RNA template poly(rA)•oligo(dT). […] Cytotoxicity on PBL and the other cells (CCRF−CEM, Vero) exerted by the test compounds was determined as described by Stuyver et al. by application of the CellTiter 96® AQueous One Solution Cell Proliferation Assay (Promega Corp., Madison, WI, USA). Briefly, the phenazine ethosulfate (PES)-coupled reduction of the tetrazolium salt 3-(4,5-dimethylthiazol-2-yl)-5-(3-carboxymethoxyphenyl)-2-(4-sulfophenyl)-2H-tetrazolium (MTS) to a purple, water-soluble formazan by living, undamaged cells was measured.

A short description of data set [2]: Cytotoxicity (CellTiter 96 AQueous One, MTS). Type of data set: cell-based, African green monkey (grivet) Chlorocebus aethiops. The conditions noted are these: African green monkey (Chlorocebus aethiops), Vero cells. The procedure:
as §1

Data set [3] relates to HIV-1LAI. In words: HIV-1LAI replication reverse transcriptase assay in primary PBM cells. Format: cell-based, human immunodeficiency virus type 1. How it is done:
(§2) The cytotoxicity and human immunodeficiency virus type 1 (HIV-1) strain LAI replication assays were performed in freshly explanted primary human peripheral blood mononuclear cells (PBM cells) according to published procedures. The assays were conducted at least in triplicate and treated statistically (if possible). HIV-1LAI (= HIV-1BRU = LAV-1) was assayed in primary human peripheral blood lymphocyte (PBL) cells in the presence of a drug being evaluated. The parameter for antiviral activity was a reduction in reverse transcriptase (RT) activity in the cell supernatant after Triton X–100-mediated lysis of released virions, as measured using [5α-^3H]dTTP (5α-tritiated thymidine 5′-triphosphate) incorporation into poly(rA)•poly(dT) directed by the primed RNA template poly(rA)•oligo(dT). […] The detailed assay methodology was reported by Schinazi et al. as based on an older assay system of Spira et al.. The experiments were conducted in triplicate and treated statistically using regression curve analysis (r^2 coefficient of determination). The RT inhibitor AZT (zidovudine, 3′-azido-3′-deoxythymidine; RETROVIR™) served as a positive control. Cytotoxicity on PBL and the other cells (CCRF−CEM, Vero) exerted by the test compounds was determined as described by Stuyver et al. by application of the CellTiter 96® AQueous One Solution Cell Proliferation Assay (Promega Corp., Madison, WI, USA). Briefly, the phenazine ethosulfate (PES)-coupled reduction of the tetrazolium salt 3-(4,5-dimethylthiazol-2-yl)-5-(3-carboxymethoxyphenyl)-2-(4-sulfophenyl)-2H-tetrazolium (MTS) to a purple, water-soluble formazan by living, undamaged cells was measured.

Data set [4] in a line: Cytotoxicity (CellTiter 96 AQueous One, MTS). Format: cell-based, human. The following applies: human; CCRF−CEM cells. The procedure: as §2

In general, CC50 refers to the concentration that lowers cell viability or growth by half. Usually EC50 stands for the concentration that produces a half-maximal response. A word on the EC90: it is the point of the concentration-response curve where the effect stands at 90%. Consider `Cc1cn([C@H]2C[C@H](N=[N+]=[N-])[C@@H](CO)O2)c(=O)[nH]c1=O` [AZT, 3′-azido-3′-deoxythymidine, reference compound], for which the results for the CC50 in data set [1], in data set [2] and in data set [4] were greater than 100 µM, 56 µM and 14.3 µM, respectively. The EC50 in data set [3] (Human immunodeficiency virus 1, PBMC, primary human PBM cells, reverse transcriptase activity in supernatant, read-out: Anti-HIV-1LAI activity EC50) is 0.0044 ± 0.0018 µM. Further, in data set [3] (Human immunodeficiency virus 1, PBMC, primary human PBM cells, reverse transcriptase activity in supernatant, read-out: Anti-HIV-1LAI activity EC90), the concentration for an effect of 90% (EC90) came out at 0.031 ± 0.015 µM. The “SI50, selectivity index CC50/EC50” value in data set [3] (PBM cells) was >22,727.
